Laboratory results taken from patent US7341750B2, “Compound isolated from Ginkgo biloba bark, isolation method thereof and antiplatelet composition containing the same” (Candleflower Co., Ltd., priority 2006, dated 2008).
Where two headings read alike, the source gives them in different places.

What was measured:
Type in all cases: cell-based
[1] = test system: ADP-induced platelet aggregation; assay: ADP-stimulated platelet aggregation in concentrated human platelet-rich plasma (aggregometer); conditions: aggregation factor ADP, human concentrated PRP, —: no effect
Protocol: (§1) To measure the activity against collagen-stimulated platelet aggregation of the novel compound identified from the Ginkgo biloba bark, concentrated human platelet-rich-plasma (PRP) was first prepared. The PRP used in the present invention was obtained by collecting blood from volunteers in Hallym University Medical Center, centrifuging the blood at 1,000 rpm and room temperature for 10 minutes to collect pure supernatant PRP and centrifuging the supernatant PRP at 3,000 rpm and room temperature for 10 minutes. The obtained PRP was separated into platelet-poor plasma (PPP) and platelets (PLTs). Then, concentrated PRP was prepared in the following manner. That is, platelets (PLTs) were suspended in a suitable amount of the supernatant PPP and measured for absorbance at 660 nm using a UV/visible spectrophotometer. Based on the measured absorbance, the suspension was further diluted with an excess of PPP to prepare concentrated PRP containing 5×10^8 platelets/ml. Herein, an OD value of 1.1 at 660 nm means 1×10^8 PLTs. A washing buffer used in the present invention was a pH 6.5 buffer containing 129 mM NaCl, 10.9 mM sodium citrate dihydrate, 8.9 mM NaHCO3, 1 mg/ml glucose, 10 mM tris-hydroxymethylaminomethane, 2.8 mM KCl, 0.8 mM KH2PO4 and 2 mM EDTA. Also, a suspension buffer used in this test example was a pH 6.9 buffer, which was the same as said washing buffer, except that it contained no EDTA. The platelet aggregation inhibitory effect of the novel compound was examined using the prepared concentrated PRP in the following manner. First, the concentrated PRP was used to make 500 μl of an in vitro reaction system. For use as a control group, the concentrated PRP was stabilized at 37° C. for 3 minutes and treated with collagen (Chrono-LogCo.) as a stimulating agent at a concentration of 10 μg/ml, and the aggregation of platelets in the reaction system was induced for 5 minutes. Meanwhile, the same reaction system as described above was treated with the novel compound, was allowed to react with the novel compound for 3 minutes, was stimulated with collagen for 6 minutes according to the same method as described above so as to induce platelet aggregation, and then was measured for aggregated platelets. The aggregation of platelets was measured with a change in light transmission using an aggregometer (Chrono-Log Co.) at 37° C. The measurement results are shown in Table 1 below and FIGS. 6, 7 and 8. Table 1 summarizes the antiplatelet aggregation activities of aspirin, the novel compound and ginkgolide A and B against platelet aggregation factors, including ADP, collagen and arachidonic acid. […]

[2] = test system: collagen-stimulated platelet aggregation; assay: Collagen-stimulated platelet aggregation in concentrated human platelet-rich plasma (aggregometer); conditions: human concentrated PRP; for IC50: aggregation factor collagen 10 μg/ml, 37° C., read-out: IC50 antiplatelet aggregation activity, Collagen
Protocol: To measure the activity against collagen-stimulated platelet aggregation of the novel compound identified from the Ginkgo biloba bark, concentrated human platelet-rich-plasma (PRP) was first prepared. The PRP used in the present invention was obtained by collecting blood from volunteers in Hallym University Medical Center, centrifuging the blood at 1,000 rpm and room temperature for 10 minutes to collect pure supernatant PRP and centrifuging the supernatant PRP at 3,000 rpm and room temperature for 10 minutes. The obtained PRP was separated into platelet-poor plasma (PPP) and platelets (PLTs). Then, concentrated PRP was prepared in the following manner. That is, platelets (PLTs) were suspended in a suitable amount of the supernatant PPP and measured for absorbance at 660 nm using a UV/visible spectrophotometer. Based on the measured absorbance, the suspension was further diluted with an excess of PPP to prepare concentrated PRP containing 5×10^8 platelets/ml. Herein, an OD value of 1.1 at 660 nm means 1×10^8 PLTs. A washing buffer used in the present invention was a pH 6.5 buffer containing 129 mM NaCl, 10.9 mM sodium citrate dihydrate, 8.9 mM NaHCO3, 1 mg/ml glucose, 10 mM tris-hydroxymethylaminomethane, 2.8 mM KCl, 0.8 mM KH2PO4 and 2 mM EDTA. Also, a suspension buffer used in this test example was a pH 6.9 buffer, which was the same as said washing buffer, except that it contained no EDTA. The platelet aggregation inhibitory effect of the novel compound was examined using the prepared concentrated PRP in the following manner. First, the concentrated PRP was used to make 500 μl of an in vitro reaction system. For use as a control group, the concentrated PRP was stabilized at 37° C. for 3 minutes and treated with collagen (Chrono-LogCo.) as a stimulating agent at a concentration of 10 μg/ml, and the aggregation of platelets in the reaction system was induced for 5 minutes. Meanwhile, the same reaction system as described above was treated with the novel compound, was allowed to react with the novel compound for 3 minutes, was stimulated with collagen for 6 minutes according to the same method as described above so as to induce platelet aggregation, and then was measured for aggregated platelets. The aggregation of platelets was measured with a change in light transmission using an aggregometer (Chrono-Log Co.) at 37° C. The measurement results are shown in Table 1 below and FIGS. 6, 7 and 8. Table 1 summarizes the antiplatelet aggregation activities of aspirin, the novel compound and ginkgolide A and B against platelet aggregation factors, including ADP, collagen and arachidonic acid. […] In the case of the group treated with the novel compound, when arachidonic acid was used as the aggregation factor, the aggregation of platelets occurred only upon stimulation with 1,000 μM (i.e., 1 mM) or higher concentration of arachidonic acid.

[3] = test system: arachidonic acid-stimulated platelet aggregation; assay: Arachidonic acid-stimulated platelet aggregation in concentrated human platelet-rich plasma (aggregometer); conditions: for arachidonic acid-stimulated platelet aggregation in treated groups: groups treated with the compound
Protocol: as §1

[4] = arachidonic acid as aggregation factor

| IC50 ([1]; Platelet, read-out: IC50 antiplatelet aggregation activity, ADP) [µM] | IC50 ([2]; Platelet) [µM] | IC50 antiplatelet aggregation activity, ADP [1] | IC50 [2] [µM] | IC50 ([3]; Platelet, aggregation factor arachidonic acid, human concentrated PRP, —: no effect, read-out: IC50 antiplatelet aggregation activity, AA) [µM] | SMILES | inhibitory activity on collagen-stimulated platelet aggregation (FIGS. 6-8) [2] | arachidonic acid-stimulated platelet aggregation in treated groups [3, 4] | concentration of arachidonic acid at which aggregation of platelets occurred in the treated group ([3]; arachidonic acid as aggregation factor, group treated with the compound) |
| --- | --- | --- | --- | --- | --- | --- | --- | --- |
| 316 | 203 |  |  |  | CC(=O)Oc1ccccc1C(=O)O [Aspirin] | inhibited platelet aggregation in a concentration-dependent manner |  |  |
|  |  | did not show an effect | 482 |  | C[C@@H]1C(=O)O[C@H]2C[C@@]34[C@H]5C[C@@H](C(C)(C)C)[C@]36[C@@H](OC(=O)[C@@H]6O)O[C@@]4(C(=O)O5)[C@]21O [Gingkolide A] | inhibited collagen-stimulated platelet aggregation in a concentration-dependent manner | did not occur |  |
|  |  | did not show an effect | 480 |  | C[C@@H]1C(=O)O[C@H]2[C@@H](O)[C@@]34[C@H]5C[C@@H](C(C)(C)C)[C@]36[C@@H](OC(=O)[C@@H]6O)O[C@@]4(C(=O)O5)[C@@]12O [Gingkolide B] | inhibited collagen-stimulated platelet aggregation in a concentration-dependent manner | did not occur |  |
|  | 680 | did not show an effect |  | > 1000 | COc1cc(-c2oc3cc(OC)c(CCCO)cc3c2C=O)ccc1O [Novel compound, 5-(3-hydroxyprophyl)-6-methoxy-2-(3′-methoxy-4′-hydroxyphenyl)-3-benzo[b]furancarbaldehyde] | inhibited collagen-stimulated platelet aggregation in a concentration-dependent manner |  | ≥ 1,000 μM |
